Test systems include CAKI-1 renal; HT29 colon; NCI-H460 lung; NCI/ADR-RES ovarian; OVCAR-3 ovarian; PC-3 prostate; SK-MEL-28 melanoma; SK-OV-3 ovarian; SNB-75 CNS; SR leukemia.
Common to all, as to assay: growth of human tumour cells (NCI), 48 h

Structures are written as SMILES.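 The compound was tested at five concentrations on cells cultured in 96-well plates, with a 48-hour exposure period. GI50: concentration for 50% inhibition of growth. At the TGI there is no net growth.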

With `CCC(=O)Sc1ccccc1C(=O)Nc1ccc(Cl)cc1`, the GI50 is 10.2 µM in the test with CAKI-1 renal; 7.09 µM with HT29 colon; 4.84 µM in the test with NCI-H460 lung; 6.45 µM in the test on NCI/ADR-RES ovarian; 6.34 µM with OVCAR-3 ovarian; 10.8 µM with PC-3 prostate. The GI50 in the test with SK-MEL-28 melanoma is 9.33 µM; with SK-OV-3 ovarian, 18.7 µM; in the test on SNB-75 CNS it was 19.2 µM. The TGI with CAKI-1 renal was 38.4 µM; with HT29 colon, 44.5 µM; in the test with NCI-H460 lung, 36 µM; in the test with NCI/ADR-RES ovarian, 38 µM; in the test on OVCAR-3 ovarian, 26.1 µM; with PC-3 prostate it was 56.3 µM. In addition, the results for the TGI in the test with SK-MEL-28 melanoma, with SK-OV-3 ovarian and in the test with SNB-75 CNS were 57.7 µM, 53.9 µM and 98.2 µM, respectively.
As to `Cn1ncc2cc(-c3cnc(N)c(Cl)c3N3CCC4(CCNC4=O)CC3)ccc21`, the GI50 in the test on HT29 colon is 46.2 µM; with NCI-H460 lung, 59 µM; in the test with NCI/ADR-RES ovarian, 32.8 µM; in the test on OVCAR-3 ovarian it was 42.9 µM; with PC-3 prostate it was 42.1 µM; in the test with SK-MEL-28 melanoma, 33 µM. Further, the GI50 with SK-OV-3 ovarian was 31.5 µM; in the test on SNB-75 CNS, 17 µM; with SR leukemia it was 6.4 µM. Also, the TGI in the test with HT29 colon, in the test with NCI-H460 lung, in the test on NCI/ADR-RES ovarian, in the test with OVCAR-3 ovarian, in the test with PC-3 prostate and in the test on SK-MEL-28 melanoma was over 100 µM each time. Also, the TGI is over 100 µM with SK-OV-3 ovarian, 77.8 µM in the test with SNB-75 CNS and 57.2 µM in the test on SR leukemia.
For the molecule `COc1ccc(C(CC(=O)c2ccccc2)C(C(=O)c2ccccc2)C(c2ccc(OC)cc2)C2C(=O)NC(=O)NC2=O)cc1` (centres undefined), the GI50 in the test on CAKI-1 renal is 2.85 µM; with NCI-H460 lung, 7.14 µM; with NCI/ADR-RES ovarian, 22.2 µM; with OVCAR-3 ovarian, 11.9 µM; in the test on PC-3 prostate it was 7.31 µM; in the test with SK-MEL-28 melanoma, 23.7 µM. The GI50 was over 100 µM in the test with SK-OV-3 ovarian and 32.6 µM in the test on SNB-75 CNS. In addition, the TGI was 20.3 µM with CAKI-1 renal; over 100 µM with NCI-H460 lung; 63.7 µM in the test on NCI/ADR-RES ovarian; 44.4 µM with OVCAR-3 ovarian; over 100 µM in the test with PC-3 prostate; over 100 µM with SK-MEL-28 melanoma. The TGI with SK-OV-3 ovarian and with SNB-75 CNS was over 100 µM in each case.
On to `O=S(=O)(Nc1ccc(-c2nc(-c3cccc(OCCN4CCOCC4)c3)c(-c3ccnc(Br)c3)[nH]2)cc1)c1ccccc1`, for which the GI50 is 2.56 µM with CAKI-1 renal; 3.45 µM in the test with NCI-H460 lung; 4.18 µM with NCI/ADR-RES ovarian; 4.71 µM in the test on OVCAR-3 ovarian; 2.4 µM with PC-3 prostate; 2.77 µM with SK-MEL-28 melanoma. Moreover, the GI50 was 3.81 µM with SK-OV-3 ovarian and 2.62 µM in the test on SR leukemia. The TGI in the test on CAKI-1 renal is 14.5 µM; with NCI-H460 lung, over 100 µM; in the test on NCI/ADR-RES ovarian it was over 100 µM; with OVCAR-3 ovarian it was over 100 µM; in the test on PC-3 prostate, 36.6 µM; in the test with SK-MEL-28 melanoma, 9.79 µM. The TGI in the test on SK-OV-3 ovarian and in the test with SR leukemia was over 100 µM in each case.
As to `CC1=CC[C@@H]2[C@@H](CC[C@@]2(C)O)C(C)(C)[C@H]1CC[C@@H]1[C@@]2(C)CCC(=O)C(C)(C)O[C@@H]2CC[C@]1(C)O`, the TGI with CAKI-1 renal was 96.6 µM; in the test with NCI-H460 lung it was 35.8 µM; in the test on NCI/ADR-RES ovarian it was 60.9 µM; with OVCAR-3 ovarian, over 100 µM; in the test on PC-3 prostate it was over 100 µM; with SK-MEL-28 melanoma, over 100 µM. The TGI with SK-OV-3 ovarian was over 100 µM; in the test with SNB-75 CNS, over 100 µM; in the test with SR leukemia it was 59.4 µM.
Take `COc1cc2c(cc1OC)C13CCN4CC5=CCOC(CC(=O)O)C(C5CC41)C3N2` (centres undefined): the TGI in the test with CAKI-1 renal, in the test on HT29 colon, in the test on NCI-H460 lung, with NCI/ADR-RES ovarian, in the test with OVCAR-3 ovarian and in the test on PC-3 prostate was over 100 µM throughout. Further, the TGI in the test on SK-MEL-28 melanoma, in the test with SK-OV-3 ovarian and in the test with SR leukemia was over 100 µM each time.
In the case of `COc1ccc2c(c1)C(=O)c1c-2c(NCCCN(C)C)nc2ccccc12`, the GI50 in the test on CAKI-1 renal was 12.5 µM; with HT29 colon it was 1.02 µM; in the test on NCI-H460 lung, 1.33 µM; in the test on NCI/ADR-RES ovarian, 4.03 µM; in the test with OVCAR-3 ovarian, 15.3 µM; in the test with PC-3 prostate it was 3.53 µM. Further, the GI50 with SK-MEL-28 melanoma is 0.524 µM; in the test on SNB-75 CNS it was 0.997 µM; in the test with SR leukemia it was 1.09 µM. Also, the TGI in the test with CAKI-1 renal turned out to be 29.6 µM; in the test with HT29 colon it was 2.82 µM; in the test on NCI-H460 lung it was 2.76 µM; in the test on NCI/ADR-RES ovarian, 19.4 µM; with OVCAR-3 ovarian it was 31.7 µM; in the test with PC-3 prostate it was 14.2 µM. In addition, the TGI with SK-MEL-28 melanoma was determined as 1.94 µM; in the test with SNB-75 CNS, 11.8 µM; in the test on SR leukemia it was 3.58 µM.
In the case of `C=CC1CC12C(=O)C1OC2(C)C2C(=O)c3ccccc3C(=O)C12` (centres undefined), the GI50 in the test on CAKI-1 renal is 21.7 µM; in the test with HT29 colon, over 61.6 µM; with NCI-H460 lung it was over 58.3 µM; in the test with NCI/ADR-RES ovarian, over 43.6 µM; with OVCAR-3 ovarian, 13.9 µM; in the test with PC-3 prostate it was 54.7 µM. For the same molecule, the results for the GI50 in the test on SK-MEL-28 melanoma, in the test on SK-OV-3 ovarian and in the test on SNB-75 CNS were over 71 µM, over 93.3 µM and over 37.4 µM, respectively. In addition, the TGI with CAKI-1 renal is 58.6 µM; in the test on HT29 colon it was over 100 µM; with NCI-H460 lung, over 100 µM; with NCI/ADR-RES ovarian, over 70.9 µM; in the test on OVCAR-3 ovarian, 60.5 µM; with PC-3 prostate it was over 100 µM. In addition, the TGI with SK-MEL-28 melanoma was over 100 µM; with SK-OV-3 ovarian, over 100 µM; in the test with SNB-75 CNS it was over 76.1 µM.
With `CN(C)c1c(Cl)c(=O)oc2c1ccc1nc(-c3ccccc3)sc12`, the TGI in the test on CAKI-1 renal, with HT29 colon, in the test on NCI-H460 lung, in the test on NCI/ADR-RES ovarian, in the test on OVCAR-3 ovarian and with PC-3 prostate was over 100 µM in each case. Besides, the TGI in the test with SK-MEL-28 melanoma and in the test on SR leukemia was over 100 µM throughout.
Consider `Nc1ccccc1C#C/C=C\C#Cc1ccc(F)cc1F`, for which the GI50 with CAKI-1 renal was 3.13 µM; in the test with HT29 colon, 31.1 µM; in the test with NCI-H460 lung, 12.9 µM; in the test on NCI/ADR-RES ovarian, 6.22 µM; in the test with OVCAR-3 ovarian, 6.2 µM; with PC-3 prostate, 10.7 µM. For the same molecule, the results for the GI50 in the test with SK-MEL-28 melanoma and in the test on SK-OV-3 ovarian were 27 µM and 27.4 µM, respectively. Further, the TGI is 14.7 µM with CAKI-1 renal; over 100 µM with HT29 colon; 28.7 µM in the test on NCI-H460 lung; 21.1 µM in the test with NCI/ADR-RES ovarian; 21.4 µM in the test on OVCAR-3 ovarian; 56.5 µM with PC-3 prostate. The TGI with SK-MEL-28 melanoma amounted to 90.1 µM; in the test on SK-OV-3 ovarian it was 66.7 µM.
On to `O=C1OCC(c2ccc(O)c(O)c2)=C1c1cc(O)c(O)c(O)c1`, for which the GI50 was 14.3 µM with CAKI-1 renal; 32.5 µM in the test with HT29 colon; 35.3 µM in the test with NCI-H460 lung; 0.0297 µM in the test on NCI/ADR-RES ovarian; 12.9 µM in the test with OVCAR-3 ovarian; 17.9 µM in the test on PC-3 prostate. Moreover, the GI50 with SK-MEL-28 melanoma was 38.5 µM; with SNB-75 CNS, 54 µM. Also, the TGI in the test on CAKI-1 renal is 27.9 µM; in the test on HT29 colon, 98.2 µM; with NCI-H460 lung, over 100 µM; in the test on NCI/ADR-RES ovarian it was 18.8 µM; with OVCAR-3 ovarian it was 26.5 µM; in the test with PC-3 prostate, 43.3 µM. The TGI in the test with SK-MEL-28 melanoma and in the test on SNB-75 CNS was over 100 µM each time.
Turning to `Cn1ncc2c(Nc3ccc(Br)cc3)nc(Nc3ccc(Br)cc3)nc21`, the GI50 in the test on CAKI-1 renal was 1.87 µM; in the test with HT29 colon it was 2.03 µM; with NCI-H460 lung, 2.23 µM; in the test on NCI/ADR-RES ovarian it was 3.64 µM; in the test on OVCAR-3 ovarian it was 3.95 µM; in the test with SK-MEL-28 melanoma, 5.09 µM. Besides, the figures for the GI50 with SK-OV-3 ovarian, with SNB-75 CNS and in the test with SR leukemia were 10.9 µM, 2.23 µM and 1.69 µM, respectively. The TGI in the test with CAKI-1 renal is 4.49 µM; in the test on HT29 colon it was 4.32 µM; in the test on NCI-H460 lung it was 5.23 µM; in the test with NCI/ADR-RES ovarian it was 16.1 µM; in the test with OVCAR-3 ovarian, 12.3 µM; in the test with SK-MEL-28 melanoma, 17 µM. Moreover, the figures for the TGI with SK-OV-3 ovarian, in the test with SNB-75 CNS and in the test with SR leukemia were 23.5 µM, 12.5 µM and 5.21 µM, respectively.
Turning to `COc1ccc2c(c1)Oc1nc(N)c(C#N)c(N)c1C2Sc1ccc(SC)cc1` (centres undefined), the GI50 is 2.2 µM with HT29 colon; 2.04 µM in the test with NCI-H460 lung; 2.42 µM in the test on NCI/ADR-RES ovarian; 1.75 µM in the test on OVCAR-3 ovarian; 1.77 µM in the test on PC-3 prostate; 1.71 µM in the test with SK-MEL-28 melanoma. The GI50 in the test with SK-OV-3 ovarian was 1.77 µM; with SNB-75 CNS it was 1.46 µM; in the test on SR leukemia, 2.25 µM. Besides, the TGI is 4.36 µM with HT29 colon; 4.05 µM in the test on NCI-H460 lung; 6.05 µM in the test on NCI/ADR-RES ovarian; 3.19 µM with OVCAR-3 ovarian; 3.27 µM with PC-3 prostate; 3.15 µM in the test with SK-MEL-28 melanoma. Moreover, the TGI in the test with SK-OV-3 ovarian worked out at 3.16 µM; in the test on SNB-75 CNS, 2.8 µM; in the test with SR leukemia it was 6.66 µM.
On to `Cc1ccc(S(=O)(=O)N(C)C)cc1[N+](=O)[O-]`, for which the GI50 in the test on CAKI-1 renal, in the test with HT29 colon, in the test on NCI-H460 lung, with NCI/ADR-RES ovarian, in the test on OVCAR-3 ovarian and in the test on PC-3 prostate was over 100 µM throughout. Moreover, the GI50 with SK-MEL-28 melanoma and with SK-OV-3 ovarian was over 100 µM throughout. Moreover, the TGI in the test with CAKI-1 renal, with HT29 colon, in the test on NCI-H460 lung, with NCI/ADR-RES ovarian, with OVCAR-3 ovarian and in the test with PC-3 prostate was over 100 µM in each case. Also, the TGI with SK-MEL-28 melanoma and in the test with SK-OV-3 ovarian was over 100 µM in each case.

These data come from PubChem BioAssay (NCI).
